Read-outs that look alike come from different tables or passages of the source.

This note sets out measurements from US20120232011A1, “Use of Rapamycin and Rapamycin Derivatives for the Treatment of Bone Loss” (priority 2003, published 2012).

In assay [1] the test system is bone-resorbing osteoclasts differentiated from peripheral blood mononuclear cells. As to the kind of experiment: Human osteoclastogenesis assay. The format is cell-based. As for the experimental part: Peripheral blood mononuclear cells from healthy male donors are differentiated into bone-resorbing osteoclasts by treatment with a cytokine cocktail containing RANKL, M-CSF and transforming growth factor (TGF)-beta 1. Osteoclast formation is measured after 17 days by quantifying the number of TRAP-positive multinucleated cells generated in plastic wells on a 96-well plate. Osteoclast activity is measured after 17 days by quantifying the area of resorbed bone on bovine cortical bone slices placed in wells on a 96-well plate. Treatment with rapamycin or the rapamycin derivative, e.g. Compound A, starts at the beginning of cell culture, together with the cytokine treatment. Collagen fragments are measured by enzyme linked immunosorbent assay (ELISA).

In assay [2] the test system is Cdc2-related serine/threonine PFTAIREI
As to the kind of experiment: Gene expression in human osteoclasts: PFTAIREI
Particulars: human osteoclasts after treatment. The format is cell-based. As for the experimental part: (§1) A.3 Gene expression is analyzed according to a method known in the art, in human osteoclasts after treatment with rapamycin or a derivative thereof.

Assay [3] concerns osteoclast-specific protease cathepsin K. As to the kind of experiment: Gene expression in human osteoclasts: cathepsin K. The format is cell-based. The note with it: human osteoclasts after treatment. As for the experimental part: as §1
Assay [4] relates to bone-resorbing osteoclasts differentiated from non-adherent bone marrow mononuclear cells. Nature of the assay: Mouse osteoclastogenesis assay (osteoclast formation and activity). The class given is cell-based. As for the experimental part: Non-adherent bone marrow mononuclear cells from 5-week-old male mice cells are differentiated into bone-resorbing osteoclasts by treatment with a cytokine cocktail containing receptor activator of NF kappa B ligand (RANKL), macrophage-colony stimulating factor (M-CSF) and interleukin-1 (IL-1) alpha. Osteoclast formation is measured after 6 days by quantifying the number of tartrate-resistant acid phosphatase (TRAP)-positive multinucleated cells generated in plastic wells on a 48-well plate. Osteoclast activity is measured after 12 days by quantifying the area of resorbed dentine slices placed in wells on a 48-well plate. Treatment with rapamycin or the rapamycin derivative, e.g. Compound A, starts at the beginning of cell culture, together with the cytokine treatment.

The test system of assay [5] is mouse pre-osteoblastic cell line MC3T3-1b. Nature of the assay: Osteoblast differentiation in MC3T3-1b cells (alkaline phosphatase staining). The class given is cell-based. The note with it: MC3T3-1b cells with osteogenic stimulus (BMP-2, ascorbic acid, beta-glycerophosphate); read-out: Alkaline phosphatase (ALP) staining IC50. As for the experimental part:
Osteoblast differentiation is evaluated in mouse pre-osteoblastic cell line MC3T3-1b, stimulated to differentiate with osteogenic stimulus (a mixture of bone morphogenetic protein 2 (BMP-2), ascorbic acid and beta-glycerophosphate). Osteoplast activity is measured by quantifying culture area covered with alkaline phosphate-positive cells on a 48-well plate. Treatment with rapamycin or the rapamycin derivative, e.g. Compound A, starts at the beginning of cell culture, together with the osteogenic stimulus treatment.

Assay [6] deals with cancellous bone loss after ovariectomy. Nature of the assay: Ovariectomized rat model. The class given is in vivo. The protocol: Before operation, the tibial bone mass and geometry of the animals is measured at baseline by dual-energy x-ray absorptiometry (DEXA) and periphere quantitative computer tomography (pQCT). Following ovariectomy (OVX) or sham operation, skeletally mature rats are treated for 8 weeks daily with 0.15 mg/kg, 0.5 mg/kg, 1.5 mg/kg, or 3.0 mg/kg of rapamycin or a rapamycin derivative, e.g. Compound A, or vehicle alone by oral administration or once a week with 1.5 mg/kg or 5.0 mg/kg of rapamycin or a rapamycin derivative; e.g. Compound A. At the beginning of the treatment, animals receive a fluorochrome label, e.g. calcein (e.g. 30 mg/kg, subcutaneous (s.c.)). Changes in bone mass and geometry (pQCT, DEXA) are evaluated in vivo after 4 weeks of treatment and at 8 weeks before necropsy. Body weight is monitored weekly. The animals are administered two further fluorochrome labels for marking of bone mineralization prior to necropsy, e.g. alizarin e.g. 20 mg/kg, s.c., 10 days prior to necropsy, and calcein e.g. 30 mg/kg, s.c., 3 days prior to necropsy. Blood samples (500 μl blood) are taken in heparin before necropsy and frozen at −20° C. for analysis of calcium, phosphate, TRAP, ALP, and osteocalcin. DEXA measurements are carried out at necropsy on excised tibia, femur, and lumbar vertebrae.

Regarding `CO[C@H]1C[C@@H]2CC[C@@H](C)[C@@](O)(O2)C(=O)C(=O)N2CCCC[C@H]2C(=O)O[C@H]([C@H](C)C[C@@H]2CC[C@@H](OCCO)[C@H](OC)C2)CC(=O)[C@H](C)/C=C(\C)[C@@H](O)[C@@H](OC)C(=O)[C@H](C)C[C@H](C)/C=C/C=C/C=C/1C` [Compound A, 40-O-(2-hydroxyethyl)-rapamycin], the IC50 amounted to 4 ± 0.5 nM in assay [1] (ELISA, read-out: Collagen fragment release IC50); 7.7 ± 1.1 nM in assay [1] (TRAP-positive multinucleated cells after 17 days, read-out: osteoclast formation IC50); 3.4 ± 0.3 nM in assay [1] (bovine cortical bone slices, 17 days, read-out: Resorbed area IC50); 10.5 ± 4.6 nM in assay [4] (TRAP-positive multinucleated cells after 6 days, read-out: osteoclast formation IC50); 0.6 ± 0.3 nM in assay [4] (area of resorbed dentine slices after 12 days, read-out: osteoclast activity IC50); 13.5 ± 2.4 nM in assay [5]. Moreover, the “increase of PFTAIREI expression” value in assay [2] was “about 300%”. Moreover, in assay [3], the “reduction of cathepsin K expression” value was “about 78%”. The “effect on trabecular number” value in assay [6] is given as “inhibits reduction of trabecular number”. Moreover, the “inhibition of cancellous bone loss” value in assay [6] (3 mg/kg/day, oral) stood at 60%.
